Laboratory results taken from the supplement of paper PMC11451515.

What was measured:
Settings in all cases: 48 h
SEM cells [1] = experiment: AUC of viability dose-response curve (% viability x log10 dose units); higher = less sensitive
Outline: (§1)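 Viability of medium-adapted leukemia cells was measured by CellTiter-Glo One luminescence after 48 h at 37°C with library compounds in DMSO. Doses were 11 threefold steps from 47 μM to 0.79 nM, in 1536-well plates at 500 or 1000 cells/well. Signals were normalised per plate to DMSO and cell-free wells and fitted with a four-parameter log-logistic model on log10 dose. Area under the curve was integrated by trapezoidal rule, with curves exceeding full viability scaled and failed quality-control curves removed.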

P12-Ichikawa [2] = experiment: as above
Outline: as §1

NOMO1 [3] = experiment: as above
Outline: as §1

SEM cells [4] = experiment: cell viability relative to DMSO control; higher = less cytotoxic
Outline: (§2)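 Viability values are per-plate percentages of DMSO wells, with background from cell-free wells. Library compounds in DMSO were pin-dosed, in an 11-point threefold series from 47 μM to 0.79 nM, onto NOMO1 or SEM (500 cells/well) or P12-Ichikawa (1000 cells/well) leukemia cells in 1536-well plates (5 μl). Those cells had been adapted for at least four passages in each medium, and CellTiter-Glo One luminescence was read after 48 h at 37°C.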

P12-Ichikawa [5] = experiment: as above
Outline: as §2

NOMO1 [6] = experiment: as above
Outline: as §2

O=[N+]([O-])c1cnc(Sc2nnc(O)n2-c2ccc3c(c2)OCCO3)s1
AUC of viability dose-response curve
Settings	NOMO1 [3]	P12-Ichikawa [2]	SEM cells [1]
HPLM + 10% dialyzed FBS	376	390	341
RPMI 5 mM glucose + 10% FBS	353	356	342
RPMI 5 mM glucose + 10% dialyzed FBS	375	337	331

cell viability [%]
Settings	NOMO1 [6]	P12-Ichikawa [5]	SEM cells [4]
HPLM + 10% dialyzed FBS, 0.000781 µM	84.4	87.4	90.4
HPLM + 10% dialyzed FBS, 0.00234 µM	73.6	86.1	69.9
HPLM + 10% dialyzed FBS, 0.00702 µM	101	87.7	80.1
HPLM + 10% dialyzed FBS, 0.0211 µM	102	91	82.6
HPLM + 10% dialyzed FBS, 0.0632 µM	96.4	91.8	73.2
HPLM + 10% dialyzed FBS, 0.19 µM	92.3	93.4	86.9
HPLM + 10% dialyzed FBS, 0.569 µM	86.3	94.2	102
HPLM + 10% dialyzed FBS, 1.71 µM	96.1	97	84.3
HPLM + 10% dialyzed FBS, 5.12 µM	93.6	87.8	83.2
HPLM + 10% dialyzed FBS, 15.4 µM	6.33	45.8	2.06
HPLM + 10% dialyzed FBS, 46.1 µM	2.43	2.64	2.49
RPMI 5 mM glucose + 10% FBS, 0.000781 µM	81.7	86.5	87.5
RPMI 5 mM glucose + 10% FBS, 0.00234 µM	78.2	84.3	70.9
RPMI 5 mM glucose + 10% FBS, 0.00702 µM	95.3	88	87.6
RPMI 5 mM glucose + 10% FBS, 0.0211 µM	92	94.1	87.8
RPMI 5 mM glucose + 10% FBS, 0.0632 µM	85.2	87.6	89
RPMI 5 mM glucose + 10% FBS, 0.19 µM	86.2	92.5	88.6
RPMI 5 mM glucose + 10% FBS, 0.569 µM	82.8	81.5	100
RPMI 5 mM glucose + 10% FBS, 1.71 µM	92.2	90	73.1
RPMI 5 mM glucose + 10% FBS, 5.12 µM	84.7	81.6	71.4
RPMI 5 mM glucose + 10% FBS, 15.4 µM	2.77	3.89	2.18
RPMI 5 mM glucose + 10% FBS, 46.1 µM	2.27	1.48	2.5
RPMI 5 mM glucose + 10% dialyzed FBS, 0.000781 µM	78.9	83.6	82.7
RPMI 5 mM glucose + 10% dialyzed FBS, 0.00234 µM	96.3	78.6	67.9
RPMI 5 mM glucose + 10% dialyzed FBS, 0.00702 µM	92	80.5	81.6
RPMI 5 mM glucose + 10% dialyzed FBS, 0.0211 µM	97.1	84.1	84.1
RPMI 5 mM glucose + 10% dialyzed FBS, 0.0632 µM	92.2	87.4	77.4
RPMI 5 mM glucose + 10% dialyzed FBS, 0.19 µM	98.9	89.2	88.2
RPMI 5 mM glucose + 10% dialyzed FBS, 0.569 µM	95.3	83.6	85.1
RPMI 5 mM glucose + 10% dialyzed FBS, 1.71 µM	89.9	79.2	86.7
RPMI 5 mM glucose + 10% dialyzed FBS, 5.12 µM	83.5	79.3	77.9
RPMI 5 mM glucose + 10% dialyzed FBS, 15.4 µM	6.45	1.24	2.08
RPMI 5 mM glucose + 10% dialyzed FBS, 46.1 µM	1.89	0.948	2.84

CCN(C)C(=O)Oc1cccc([C@H](C)N(C)C)c1
AUC of viability dose-response curve
Settings	NOMO1 [3]	P12-Ichikawa [2]	SEM cells [1]
HPLM + 10% dialyzed FBS	451	452	463
RPMI 5 mM glucose + 10% FBS	468	458	432
RPMI 5 mM glucose + 10% dialyzed FBS	474	465	452

cell viability [%]
Settings	NOMO1 [6]	P12-Ichikawa [5]	SEM cells [4]
HPLM + 10% dialyzed FBS, 0.000781 µM	110	117	101
HPLM + 10% dialyzed FBS, 0.00234 µM	117	105	108
HPLM + 10% dialyzed FBS, 0.00702 µM	124	104	104
HPLM + 10% dialyzed FBS, 0.0211 µM	128	114	125
HPLM + 10% dialyzed FBS, 0.0632 µM	102	106	110
HPLM + 10% dialyzed FBS, 0.19 µM	110	105	119
HPLM + 10% dialyzed FBS, 0.569 µM	122	107	97.4
HPLM + 10% dialyzed FBS, 1.71 µM	95.3	107	105
HPLM + 10% dialyzed FBS, 5.12 µM	99.9	99.5	99.2
HPLM + 10% dialyzed FBS, 15.4 µM	109	96.4	101
HPLM + 10% dialyzed FBS, 46.1 µM	106	104	105
RPMI 5 mM glucose + 10% FBS, 0.000781 µM	95.9	106	121
RPMI 5 mM glucose + 10% FBS, 0.00234 µM	102	104	114
RPMI 5 mM glucose + 10% FBS, 0.00702 µM	99.3	–	108
RPMI 5 mM glucose + 10% FBS, 0.0211 µM	105	102	111
RPMI 5 mM glucose + 10% FBS, 0.0632 µM	108	99.7	122
RPMI 5 mM glucose + 10% FBS, 0.19 µM	94.4	102	90.1
RPMI 5 mM glucose + 10% FBS, 0.569 µM	108	113	95.9
RPMI 5 mM glucose + 10% FBS, 1.71 µM	111	101	95.9
RPMI 5 mM glucose + 10% FBS, 5.12 µM	92.6	95.6	85.7
RPMI 5 mM glucose + 10% FBS, 15.4 µM	112	102	105
RPMI 5 mM glucose + 10% FBS, 46.1 µM	98.4	99.2	99.5
RPMI 5 mM glucose + 10% dialyzed FBS, 0.000781 µM	101	103	124
RPMI 5 mM glucose + 10% dialyzed FBS, 0.00234 µM	98.3	102	100
RPMI 5 mM glucose + 10% dialyzed FBS, 0.00702 µM	104	99.3	111
RPMI 5 mM glucose + 10% dialyzed FBS, 0.0211 µM	111	98.7	121
RPMI 5 mM glucose + 10% dialyzed FBS, 0.0632 µM	109	103	110
RPMI 5 mM glucose + 10% dialyzed FBS, 0.19 µM	97.7	104	109
RPMI 5 mM glucose + 10% dialyzed FBS, 0.569 µM	91.6	104	121
RPMI 5 mM glucose + 10% dialyzed FBS, 1.71 µM	87.1	98.2	101
RPMI 5 mM glucose + 10% dialyzed FBS, 5.12 µM	105	93.4	111
RPMI 5 mM glucose + 10% dialyzed FBS, 15.4 µM	98.5	94.7	110
RPMI 5 mM glucose + 10% dialyzed FBS, 46.1 µM	110	86.7	95.6

CC(C)NCC(O)COc1ccc(CCOCC2CC2)cc1 (stereo unspecified)
AUC of viability dose-response curve
Settings	NOMO1 [3]	P12-Ichikawa [2]	SEM cells [1]
HPLM + 10% dialyzed FBS	427	474	470
RPMI 5 mM glucose + 10% FBS	453	469	458
RPMI 5 mM glucose + 10% dialyzed FBS	448	461	468

cell viability [%]
Settings	NOMO1 [6]	P12-Ichikawa [5]	SEM cells [4]
HPLM + 10% dialyzed FBS, 0.000781 µM	–	121	94.9
HPLM + 10% dialyzed FBS, 0.00234 µM	–	118	94.5
HPLM + 10% dialyzed FBS, 0.00702 µM	–	113	101
HPLM + 10% dialyzed FBS, 0.0211 µM	–	117	107
HPLM + 10% dialyzed FBS, 0.0632 µM	–	113	106
HPLM + 10% dialyzed FBS, 0.19 µM	–	126	116
HPLM + 10% dialyzed FBS, 0.569 µM	–	115	99.1
HPLM + 10% dialyzed FBS, 1.71 µM	–	113	90.4
HPLM + 10% dialyzed FBS, 5.12 µM	–	111	107
HPLM + 10% dialyzed FBS, 15.4 µM	–	118	91.4
HPLM + 10% dialyzed FBS, 46.1 µM	–	120	95.1
RPMI 5 mM glucose + 10% FBS, 0.000781 µM	118	120	–
RPMI 5 mM glucose + 10% FBS, 0.00234 µM	128	123	–
RPMI 5 mM glucose + 10% FBS, 0.00702 µM	107	118	–
RPMI 5 mM glucose + 10% FBS, 0.0211 µM	109	121	–
RPMI 5 mM glucose + 10% FBS, 0.0632 µM	105	125	–
RPMI 5 mM glucose + 10% FBS, 0.19 µM	107	121	–
RPMI 5 mM glucose + 10% FBS, 0.569 µM	109	131	–
RPMI 5 mM glucose + 10% FBS, 1.71 µM	110	126	–
RPMI 5 mM glucose + 10% FBS, 5.12 µM	114	118	–
RPMI 5 mM glucose + 10% FBS, 15.4 µM	102	104	–
RPMI 5 mM glucose + 10% FBS, 46.1 µM	19.9	123	–
RPMI 5 mM glucose + 10% dialyzed FBS, 0.000781 µM	121	121	115
RPMI 5 mM glucose + 10% dialyzed FBS, 0.00234 µM	125	121	104
RPMI 5 mM glucose + 10% dialyzed FBS, 0.00702 µM	122	112	110
RPMI 5 mM glucose + 10% dialyzed FBS, 0.0211 µM	117	116	113
RPMI 5 mM glucose + 10% dialyzed FBS, 0.0632 µM	119	122	109
RPMI 5 mM glucose + 10% dialyzed FBS, 0.19 µM	118	116	113
RPMI 5 mM glucose + 10% dialyzed FBS, 0.569 µM	129	110	125
RPMI 5 mM glucose + 10% dialyzed FBS, 1.71 µM	113	119	114
RPMI 5 mM glucose + 10% dialyzed FBS, 5.12 µM	116	113	97.6
RPMI 5 mM glucose + 10% dialyzed FBS, 15.4 µM	99.1	107	105
RPMI 5 mM glucose + 10% dialyzed FBS, 46.1 µM	20.9	115	108
